The values below come from patent US6288059A, “Acylated hetero-alicyclic derivatives” (Sankyo Company, Limited, priority 1997, dated 2001).

The test system of one assay is NK2 receptors. The note with it: relative to SR48968; Tachykinin in Health and Disease abstract, 1997; cited from earlier work.
A further assay deals with T1, NK2 receptor (Cavia porcellus, UniProt Q64077).
T1 construct: A crude membrane fraction was prepared from the ileum of male Hartley guinea pigs; from tissue; host or cells: ileum of male Hartley guinea pigs, crude membrane fraction
T1 sequence (Q64077 1-402): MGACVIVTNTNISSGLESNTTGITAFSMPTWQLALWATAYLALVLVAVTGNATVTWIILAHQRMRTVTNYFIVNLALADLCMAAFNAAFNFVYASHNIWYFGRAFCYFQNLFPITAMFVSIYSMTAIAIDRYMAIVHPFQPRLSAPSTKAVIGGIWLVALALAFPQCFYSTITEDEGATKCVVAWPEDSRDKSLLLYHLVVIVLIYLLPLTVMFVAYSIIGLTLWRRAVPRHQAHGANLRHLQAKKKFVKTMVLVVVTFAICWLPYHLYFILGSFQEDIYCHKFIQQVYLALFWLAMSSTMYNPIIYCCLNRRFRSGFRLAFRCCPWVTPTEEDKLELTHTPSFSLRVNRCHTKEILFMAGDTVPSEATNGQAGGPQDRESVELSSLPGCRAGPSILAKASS
Put plainly: NK2 Receptor Binding Test ([3H]-SR-48968, crude ileum membrane fraction). More on the design: species or system guinea pig (male Hartley). The following applies: [3H]-SR-48968 1 nM; guinea pig ileum membrane; room temperature, 30 minutes; read-out: IC50 (50% binding drug concentration) (converted). How it is done: Test Example 2 NK2 Receptor Binding Test
(a) Preparation of crude ileum membrane fraction
A crude membrane fraction was prepared from the ileum of male Hartley guinea pigs. Namely, the guinea pigs were bled from the cava abdominalis under chloroform anaesthesia and the ileum was extracted immediately.
After the contents secreta and epithelium of the ilium had been scraped off using a glass slide, the extracted ileum was thinly cut in a buffer (1) (50 mM Tris-HCl, pH 7.4) and then homogenized in a buffer (2) [buffer (1) containing 120 mM sodium chloride and 5 mM potassium chloride] using a Polytron homogenizer.
The tissue mass was removed from the homogenate by filtration with a nylon mesh (50 μm) and the supernatant was centrifuged (30,000×g, 30 minutes, 4° C.).
The resultant pellet was resuspended in an ice-cooled buffer (3) [buffer (1) containing 10 mM EDTA and 300 mM potassium chloride], allowed to stand at 4° C. for 60 minutes and then washed centrifugally twice (30,000×g, 15 minutes, 4° C.).
The crude membrane fraction was preserved at -80° C. before use.
(b) Receptor Binding Test
To a mixed solution (250 μl) of the test compound and [^3 H]-SR.-48968 (Amasham Co., final concentration: 1 nM) (50 mM Tris-HCl, pH 7.4; 6 mM manganese chloride, 800 μg/ml BSA, 8 μg/ml chymostatin, 8 μg/ml leupeptin, 80 μg/ml bacitracin, 20 μg/ml phosphoramidon) was added the crude ileum membrane fraction solution (250 μl), followed by incubation at room temperature for 30 minutes.
After the reaction, a membrane ingredient was recovered on a GF/B glass fiber filter (Whatman Co.) using an automatic filtering device (Brandel Co.).
The glass filter was used after pretreatment with a 10% of polyethyleneimine solution for about 4 hours so as to inhibit non-specificbinding as much as possible.
The membrane ingredient-recovered filter was transferred to a mini-plastic vial containing a pico flow (4 ml) and the radioactivity was measured using a liquid scintillation counter (Beckman Co., LSC3500) to determine the 50% binding drug concentration (IC50).

As to `CN(C)C(=O)NC1(c2ccccc2)CCN(CC[C@@]2(c3ccc(F)c(F)c3)CN(C(=O)c3ccccc3)CCO2)CC1` [SR144190], the “NK2 receptor-selective antagonistic activity compared with SR.48968” value with NK2 receptors is listed as “more potent than that of SR.48968”.

Regarding `O=C(C1CCC1)N1CCOC(CCN2CCC3(CC2)c2ccccc2C[S+]3[O-])(c2ccc(Cl)c(Cl)c2)C1` [Example 1, 1-{2-[(2R)-(3,4-dichlorophenyl)-4-(cyclobutanecarbonyl)morpholin-2-yl]ethyl}spiro[benzo[c]thiophene-1(3H),4'-piperidine]-(2S)-oxide], the IC50 at NK2 receptor was 1.67 nM.

As for `O=C(C1CC1)N1CCOC(CCN2CCC3(CC2)c2ccccc2C[S+]3[O-])(c2ccc(Cl)c(Cl)c2)C1` [Example 2, 1-{2-[(2R)-(3,4-dichlorophenyl)-4-(cyclopropanecarbonyl)morpholin-2-yl]ethyl}spiro[benzo[c]thiophene-1(3H),4'-piperidine]-(2S)-oxide], on NK2 receptor, the IC50 is 1.39 nM.

Turning to `O=C(C1CCCC1)N1CCOC(CCN2CCC3(CC2)c2ccccc2C[S+]3[O-])(c2ccc(Cl)c(Cl)c2)C1` [Example 3, 1-{2-[(2R)-(3,4-dichlorophenyl)-4-(cyclopentanecarbonyl)morpholin-2-yl]ethyl}spiro[benzo[c]thiophene-1(3H),4'-piperidine]-(2S)-oxide], the IC50 at NK2 receptor is 1.58 nM.
